Assays:
[1] = Blood level after a 10 mg/kg oral dose in rat expressed as AUC was determined; type: ADME, organism-based; design: dose 10 mg/kg, route oral
[2] = Blood level after a 10 mg/kg oral dose in rat expressed as Cmax was determined; type: ADME, organism-based; design: dose 10 mg/kg, route oral
Homo sapiens = organism: Homo sapiens; experiment: The compound was evaluated for reduction of ADP-induced human platelet aggregation response by 50% using PRP assay; type: functional, organism-based
[3] = target: Integrin alpha-IIb/beta-3 (Homo sapiens, UniProt P05106+P08514); experiment: Inhibition of fibrinogen binding to purified human GPIIb-IIIa in ELISA; type: protein-complex assay
Integrin alpha-IIb/beta-3, sequence (P05106 27-788 limits assumed): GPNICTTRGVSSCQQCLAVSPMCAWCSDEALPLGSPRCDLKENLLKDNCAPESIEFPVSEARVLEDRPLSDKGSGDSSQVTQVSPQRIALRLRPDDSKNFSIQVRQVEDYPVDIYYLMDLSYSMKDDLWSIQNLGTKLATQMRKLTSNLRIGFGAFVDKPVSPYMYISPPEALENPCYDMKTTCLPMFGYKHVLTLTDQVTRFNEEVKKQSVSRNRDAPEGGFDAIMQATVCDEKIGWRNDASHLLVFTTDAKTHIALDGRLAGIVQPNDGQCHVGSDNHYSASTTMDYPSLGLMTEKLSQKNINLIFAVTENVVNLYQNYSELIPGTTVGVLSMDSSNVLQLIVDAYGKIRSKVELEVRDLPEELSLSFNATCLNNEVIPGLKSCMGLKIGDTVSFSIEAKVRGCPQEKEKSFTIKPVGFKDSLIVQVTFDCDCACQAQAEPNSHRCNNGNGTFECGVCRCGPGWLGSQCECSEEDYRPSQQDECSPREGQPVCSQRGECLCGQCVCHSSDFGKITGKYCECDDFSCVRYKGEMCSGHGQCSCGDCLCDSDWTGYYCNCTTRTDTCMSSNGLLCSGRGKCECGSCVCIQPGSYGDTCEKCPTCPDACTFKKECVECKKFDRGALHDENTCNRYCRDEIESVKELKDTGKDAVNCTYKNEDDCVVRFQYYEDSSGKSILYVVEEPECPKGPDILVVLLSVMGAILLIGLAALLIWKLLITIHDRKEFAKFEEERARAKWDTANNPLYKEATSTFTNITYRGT
Integrin alpha-IIb/beta-3, sequence (P08514 32-887 limits assumed): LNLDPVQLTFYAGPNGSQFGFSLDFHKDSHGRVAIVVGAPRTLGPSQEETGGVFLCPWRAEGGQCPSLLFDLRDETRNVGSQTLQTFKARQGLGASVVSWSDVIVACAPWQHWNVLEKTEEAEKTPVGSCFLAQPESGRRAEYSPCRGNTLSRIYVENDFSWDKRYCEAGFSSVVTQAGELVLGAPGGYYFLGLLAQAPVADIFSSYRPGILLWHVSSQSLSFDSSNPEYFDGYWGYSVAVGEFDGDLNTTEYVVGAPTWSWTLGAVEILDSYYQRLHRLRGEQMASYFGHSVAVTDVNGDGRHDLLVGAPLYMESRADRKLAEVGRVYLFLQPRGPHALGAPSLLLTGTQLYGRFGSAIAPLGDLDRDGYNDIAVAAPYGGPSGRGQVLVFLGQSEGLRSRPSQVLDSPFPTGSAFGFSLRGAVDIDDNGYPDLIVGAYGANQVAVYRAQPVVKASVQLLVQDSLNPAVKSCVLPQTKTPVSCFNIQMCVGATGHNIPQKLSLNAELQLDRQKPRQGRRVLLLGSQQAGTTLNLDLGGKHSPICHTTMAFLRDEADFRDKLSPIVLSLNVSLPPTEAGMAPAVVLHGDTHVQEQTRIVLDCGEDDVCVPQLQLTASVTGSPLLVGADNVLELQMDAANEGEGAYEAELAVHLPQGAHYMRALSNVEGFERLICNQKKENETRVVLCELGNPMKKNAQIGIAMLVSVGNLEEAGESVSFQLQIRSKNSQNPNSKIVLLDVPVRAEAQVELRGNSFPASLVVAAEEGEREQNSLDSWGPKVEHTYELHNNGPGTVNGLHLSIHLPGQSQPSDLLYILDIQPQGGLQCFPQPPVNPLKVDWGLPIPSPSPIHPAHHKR
Integrin alpha-IIb/beta-3, sequence (P08514 891-1039 limits assumed): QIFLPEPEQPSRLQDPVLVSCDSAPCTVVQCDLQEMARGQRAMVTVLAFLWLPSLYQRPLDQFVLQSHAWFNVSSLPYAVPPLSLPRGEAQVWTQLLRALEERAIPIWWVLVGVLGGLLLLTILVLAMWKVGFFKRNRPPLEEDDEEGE

SMILES | AUC [1] [ng·h/mL] | Cmax [2] [ng/mL] | IC50 (Homo sapiens) [nM] | IC50 [3] [nM]
N=C(N)c1ccc(C(=O)Nc2ccc3c(c2)CCC(CC(=O)O)C3=O)cc1 (configuration not stated) | 11200 | 3630 | – | –
O=C(O)CC1CCc2cc(NC(=O)COC3CCNCC3)ccc2C1=O (configuration not stated) | – | – | 18000 | –
O=C(O)CC1CCc2cc(NCCCC3CCNCC3)ccc2C1=O (configuration not stated) | – | – | 5500 | 610
N=C(N)c1ccc(C(=O)Nc2ccc3c(c2)CCC(CC(=O)O)C3=O)c(C(F)(F)F)c1 (configuration not stated) | – | – | 2000 | 72
N=C(N)c1ccc(C(=O)Nc2ccc3c(c2)CCC(CC(=O)O)C3=O)s1 (configuration not stated) | – | – | 9000 | 210

More lines, in order of falling IC50 (Homo sapiens), values ahead:

AUC [1] [ng·h/mL] | Cmax [2] [ng/mL] | IC50 (Homo sapiens) [nM] | IC50 [3] [nM] | SMILES
– | – | 1800 | 330 | O=C(O)CC1CCc2cc(NC(=O)OCC3CCNCC3)ccc2C1=O (configuration not stated)
– | – | 910 | 71 | O=C(O)CC1CCc2cc(NC(=O)CCC3CCNCC3)ccc2C1=O (configuration not stated)
10400 | 3110 | 400 | – | N=C(N)c1ccc(C(=O)Nc2ccc3c(c2)CCC(CC(=O)O)C3=O)c(Cl)c1 (configuration not stated)
8140 | 2700 | 360 | 26 | O=C(O)CC1CCc2cc(NC(=O)/C=C/C3CCNCC3)ccc2C1=O (configuration not stated)
6410 | 2020 | 240 | 5 | N=C(N)c1cc(F)c(C(=O)Nc2ccc3c(c2)CCC(CC(=O)O)C3=O)c(F)c1 (configuration not stated)
3560 | 1170 | 220 | 9 | N=C(N)c1ccc(C(=O)Nc2ccc3c(c2)CCC(CC(=O)O)C3=O)cn1 (configuration not stated)
11900 | 4020 | 100 | 3 | N=C(N)c1ccc(C(=O)Nc2ccc3c(c2)CCC(CC(=O)O)C3=O)c(F)c1 (configuration not stated)
